Source: PubChem BioAssay AID206 (DTP/NCI, 2004)
Several values for one entry are separate records, joined by “and”; a condition that tells them apart may be missing. Equal entries are not always repeated. Records with an inconclusive call do not appear.

Tested on: nude mice, HT29 intrarenal xenograft, tumor weight T/C
Assay: NCI In Vivo Anticancer Drug Screen. Data for tumor model HT29;CX-1 Human Adenocarcinoma (MER+) (intrarenal inoculation) in NU/NU Swiss (nude) mice
Details: endpoint: mean tumor weight change, higher = larger tumour
Summary of the method: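 T/C = treated-group value ÷ vehicle-group value, using tumor size or survival.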

[1] = dose: 100.0 mg/kg/injection, schedule: Q01DX010 (sc), vehicle: saline
[2] = dose: 150.0 mg/kg/injection, schedule: Q04DX004 (sc), vehicle: saline with Tween-80
[3] = dose: 1200.0 mg/kg/injection, schedule: Q04DX004 (sc), vehicle: saline with Tween-80
[4] = dose: 37.5 mg/kg/injection, schedule: Q04DX004 (sc), vehicle: saline with Tween-80
[5] = dose: 300.0 mg/kg/injection, schedule: Q04DX004 (sc), vehicle: Klucel (hydroxypropylcellulose) (HPC)
[6] = dose: 600.0 mg/kg/injection, schedule: Q04DX004 (sc), vehicle: Klucel (hydroxypropylcellulose) (HPC)
[7] = dose: 300.0 mg/kg/injection, schedule: Q04DX004 (sc), vehicle: saline with Tween-80

SMILES: CCOC(=O)Nc1cc2c(c(N)n1)N=C(CN(C)c1ccccc1)CN2
- T/C (dose: 6.0 mg/kg/injection, schedule: Q01DX010 (sc), vehicle: Klucel (hydroxypropylcellulose) (HPC)): 35 % of control
- T/C (dose: 12.0 mg/kg/injection, schedule: Q01DX010 (sc), vehicle: Klucel (hydroxypropylcellulose) (HPC)): 45 % of control
- T/C (dose: 24.0 mg/kg/injection, schedule: Q01DX010 (sc), vehicle: Klucel (hydroxypropylcellulose) (HPC)): 53 % of control

SMILES: O=C1C(=O)c2ccccc2C(O)=C1CC=C(Cl)Cl
- T/C (dose: 100.0 mg/kg/injection, schedule: Q01DX010 (sc), vehicle: water): 183 % of control
- T/C (dose: 400.0 mg/kg/injection, schedule: Q01DX010 (sc), vehicle: water): 74 % of control and 213 % of control

SMILES: CCCC(=O)O.CCCC(=O)O.CCCC(=O)O.CCCC(=O)O.[Rh].[Rh]
- T/C (dose: 0.5 mg/kg/injection, schedule: Q04DX004 (sc), vehicle: suspension in saline): 99 % of control
- T/C (dose: 1.0 mg/kg/injection, schedule: Q04DX004 (sc), vehicle: suspension in saline): 75 % of control
- T/C (dose: 2.0 mg/kg/injection, schedule: Q04DX004 (sc), vehicle: suspension in saline): 97 % of control
- T/C (dose: 4.0 mg/kg/injection, schedule: Q04DX004 (sc), vehicle: suspension in saline): 155 % of control

SMILES: Cc1ccccc1N(CC1CO1)CC1CO1 (stereo unspecified)
- T/C (dose: 50.0 mg/kg/injection, schedule: Q01DX010 (sc), vehicle: suspension in saline): 157 % of control
- T/C (dose: 100.0 mg/kg/injection, schedule: Q01DX010 (sc), vehicle: suspension in saline): 38 % of control
- T/C (dose: 200.0 mg/kg/injection, schedule: Q01DX010 (sc), vehicle: suspension in saline): 15 % of control
- T/C (dose: 800.0 mg/kg/injection, schedule: Q01DX010 (sc), vehicle: suspension in saline): 67 % of control

SMILES: CCC1CN2C(=N1)c1ccccc1-c1cc(Cl)ccc12 (stereo unspecified)
- T/C (dose: 12.5 mg/kg/injection, schedule: Q01DX010 (sc), vehicle: saline with Tween-80): 74 % of control
- T/C (dose: 25.0 mg/kg/injection, schedule: Q01DX010 (sc), vehicle: saline with Tween-80): 37 % of control
- T/C (dose: 50.0 mg/kg/injection, schedule: Q01DX010 (sc), vehicle: saline with Tween-80): 60 % of control
- T/C (dose: 100.0 mg/kg/injection, schedule: Q01DX010 (sc), vehicle: saline with Tween-80): 89 % of control

SMILES: CC[N](CC)[Ge]([CH2]C)[CH2]C.CC[N](CC)[Ge]([CH2]C)[CH2]C
- T/C (dose: 12.5 mg/kg/injection, schedule: Q01DX010 (sc), vehicle: suspension in saline): 226 % of control
- T/C (dose: 25.0 mg/kg/injection, schedule: Q01DX010 (sc), vehicle: suspension in saline): 158 % of control

SMILES: O=CC(O)C(O)C(O)C(O)C(=O)O.[NH-]C1CCCCC1[NH-].[Pt+2] (stereo unspecified)
- T/C (dose: 9.38 mg/kg/injection, schedule: Q04DX004 (sc), vehicle: suspension in saline): 44 % of control
- T/C (dose: 18.75 mg/kg/injection, schedule: Q04DX004 (sc), vehicle: suspension in saline): 62 % of control

SMILES: O=C(CCBr)N1CCN(C(=O)CCBr)CC1
- T/C (dose: 12.5 mg/kg/injection, schedule: Q01DX010 (sc), vehicle: Klucel (hydroxypropylcellulose) (HPC)): 71 % of control
- T/C (dose: 25.0 mg/kg/injection, schedule: Q01DX010 (sc), vehicle: Klucel (hydroxypropylcellulose) (HPC)): 64 % of control

SMILES: CO[C@H]1C[C@](C)(O)Cc2cc3c(c(O)c21)C(=O)c1c(O)cc2c(c1C3=O)O[C@@H]1O[C@@]2(C)[C@H](O)[C@@H](N(C)C)[C@@H]1O
- T/C (dose: 50.0 mg/kg/injection, schedule: Q04DX004 (sc), vehicle: other): 99 % of control

SMILES: COC(=O)CC(N)C(=O)O (stereo unspecified)
- T/C (dose: 225.0 mg/kg/injection, schedule: Q04DX004 (sc), vehicle: saline with Tween-80): 103 % of control
- T/C (dose: 450.0 mg/kg/injection, schedule: Q04DX004 (sc), vehicle: saline with Tween-80): 81 % of control
- T/C (dose: 900.0 mg/kg/injection, schedule: Q04DX004 (sc), vehicle: saline with Tween-80): 69 % of control
- T/C (dose: 1800.0 mg/kg/injection, schedule: Q04DX004 (sc), vehicle: saline with Tween-80): 35 % of control

SMILES: c1cc[c]([Sn]([NH]c2ncnc3[nH]cnc23)([NH]c2ncnc3[nH]cnc23)[c]2ccccc2)cc1
- T/C (dose: 150.0 mg/kg/injection, schedule: Q04DX004 (sc), vehicle: suspension in saline): 89 % of control
- T/C (dose: 300.0 mg/kg/injection, schedule: Q04DX004 (sc), vehicle: suspension in saline): 47 % of control
- T/C (dose: 600.0 mg/kg/injection, schedule: Q04DX004 (sc), vehicle: suspension in saline): 28 % of control
- T/C (dose: 1200.0 mg/kg/injection, schedule: Q04DX004 (sc), vehicle: suspension in saline): 124 % of control

SMILES: C1CN2CN3CCN(CN1C3)C2
- T/C [1]: 93 % of control
- T/C (dose: 200.0 mg/kg/injection, schedule: Q01DX010 (sc), vehicle: saline): 95 % of control

SMILES: BrC1c2cccc3cccc(c23)C1Br (stereo unspecified)
- T/C [2]: 186 % of control
- T/C [3]: 36 % of control and 39 % of control

SMILES: COC(=O)C(F)C(Br)C(=O)OC (stereo unspecified)
- T/C (dose: 9.37 mg/kg/injection, schedule: Q04DX004 (sc), vehicle: saline with Tween-80): 207 % of control
- T/C (dose: 18.75 mg/kg/injection, schedule: Q04DX004 (sc), vehicle: saline with Tween-80): 68 % of control
- T/C [4]: 223 % of control

SMILES: COc1c(CNC(=O)CCl)cc2[nH]c(C)cc2c1CNC(=O)CCl
- T/C [5]: 192 % of control
- T/C [6]: 124 % of control

SMILES: C[N+](C)(C)c1ncnc2c1ncn2C1CCCO1 (stereo unspecified)
- T/C (dose: 6.25 mg/kg/injection, schedule: Q01DX010 (sc), vehicle: saline): 80 % of control
- T/C (dose: 12.5 mg/kg/injection, schedule: Q01DX010 (sc), vehicle: saline): 120 % of control
- T/C (dose: 25.0 mg/kg/injection, schedule: Q01DX010 (sc), vehicle: saline): 90 % of control

SMILES: C=C1C(=O)C23[C@H](O)C1CC[C@H]2[C@]12COC3(O)[C@@H](O)[C@@H]1C(C)(C)CC[C@@H]2O
- T/C (dose: 25.0 mg/kg/injection, schedule: Q04DX004 (sc), vehicle: Klucel (hydroxypropylcellulose) (HPC)): 80 % of control

SMILES: C[Si](C)(C)O/C=C1/CCOC1=O
- T/C (dose: 100.0 mg/kg/injection, schedule: Q04DX004 (sc), vehicle: suspension in saline): 98 % of control
- T/C (dose: 200.0 mg/kg/injection, schedule: Q04DX004 (sc), vehicle: suspension in saline): 93 % of control
- T/C (dose: 800.0 mg/kg/injection, schedule: Q04DX004 (sc), vehicle: suspension in saline): 107 % of control

SMILES: COC1=C(OC)C(=O)C(SC/C=C(\C)CCCC(C)CCCC(C)CCCC(C)C)=CC1=O (stereo unspecified)
- T/C (dose: 100.0 mg/kg/injection, schedule: Q04DX004 (sc), vehicle: saline with Tween-80): 11 % of control
- T/C (dose: 200.0 mg/kg/injection, schedule: Q04DX004 (sc), vehicle: saline with Tween-80): 36 % of control
- T/C [7]: 59 % of control
- T/C (dose: 400.0 mg/kg/injection, schedule: Q04DX004 (sc), vehicle: saline with Tween-80): 18 % of control
- T/C (dose: 600.0 mg/kg/injection, schedule: Q04DX004 (sc), vehicle: saline with Tween-80): 26 % of control
- T/C (dose: 800.0 mg/kg/injection, schedule: Q04DX004 (sc), vehicle: saline with Tween-80): 12 % of control
- T/C [3]: 39 % of control
- T/C (dose: 2400.0 mg/kg/injection, schedule: Q04DX004 (sc), vehicle: saline with Tween-80): 55 % of control

SMILES: COc1cc([C@@H]2c3cc4c(c(O)c3C[C@H]3COC(=O)[C@@H]32)OCO4)cc(OC)c1O
- T/C (dose: 1.0 mg/kg/injection, schedule: Q01DX010 (sc), vehicle: saline): 92 % of control
- T/C (dose: 2.0 mg/kg/injection, schedule: Q01DX010 (sc), vehicle: saline): 75 % of control
- T/C (dose: 4.0 mg/kg/injection, schedule: Q01DX010 (sc), vehicle: saline): 106 % of control

SMILES: CCN(CC)CCNc1ccc(C)c2sc3ccccc3c(=O)c12
- T/C [1]: 87 % of control

SMILES: COc1cccc2c1C(=O)c1c(O)c3c(c(O)c1C2=O)C[C@@](O)(/C(C)=N\NC(=O)CO)C[C@@H]3OC1CC(N)C(O)C(C)O1 (stereo partly specified)
- T/C (dose: 15.63 mg/kg/injection, schedule: Q04DX004 (sc), vehicle: saline): 52 % of control
- T/C (dose: 31.25 mg/kg/injection, schedule: Q04DX004 (sc), vehicle: saline): 16 % of control
- T/C (dose: 62.5 mg/kg/injection, schedule: Q04DX004 (sc), vehicle: saline): 18 % of control

SMILES: Cc1ccc(C(=O)[O][Hg][CH2]C2COC([CH2][Hg][O]C(=O)c3ccc(C)cc3)CO2)cc1 (stereo unspecified)
- T/C (dose: 150.0 mg/kg/injection, schedule: Q04DX004 (sc), vehicle: Klucel (hydroxypropylcellulose) (HPC)): 87 % of control
- T/C [5]: 51 % of control
- T/C [6]: 47 % of control
- T/C (dose: 1200.0 mg/kg/injection, schedule: Q04DX004 (sc), vehicle: Klucel (hydroxypropylcellulose) (HPC)): 42 % of control

SMILES: Cc1cc2c(C(C)C)c(O)c(O)c(C=O)c2c(O)c1-c1c(C)cc2c(C(C)C)c(O)c(O)c(C=O)c2c1O
- T/C [4]: 100 % of control
- T/C (dose: 75.0 mg/kg/injection, schedule: Q04DX004 (sc), vehicle: saline with Tween-80): 71 % of control
- T/C [2]: 64 % of control
- T/C [7]: 46 % of control
